Measured values: the NIST ThermoML archive (doi:10.1016/j.jct.2015.12.027)

What was measured:
[1] = refractive index (Na D-line) (dimensionless); settings: 81.5 kPa, Liquid, Standard Abbe refractometry
[2] = 81.5 kPa, Liquid, Vibrating tube method
[3] = xn = mol fraction of the nth substance listed; settings: 81.5 kPa, Liquid, Vibrating tube method
[4] = refractive index (Na D-line) (dimensionless); xn = mol fraction of the nth substance listed; settings: 81.5 kPa, Liquid, Standard Abbe refractometry

ClCCCl [1,2-dichloroethane]
Settings	mass density, 293.15 K [kg/m3]	mass density, 303.15 K [kg/m3]	mass density, 313.15 K [kg/m3]	mass density, 323.15 K [kg/m3]	mass density, 333.15 K [kg/m3]	refractive index, 293.15 K	refractive index, 303.15 K	refractive index, 313.15 K	refractive index, 323.15 K	refractive index, 333.15 K
[1]	–	–	–	–	–	1.44472	1.43948	1.43423	1.42897	1.42373
[2]	1252.82	1238.27	1223.53	1208.61	1193.61	–	–	–	–	–

c1ccccc1 [benzene] + ClCCCl
x2 = 0
Settings	mass density, 293.15 K [kg/m3]	mass density, 303.15 K [kg/m3]	mass density, 313.15 K [kg/m3]	mass density, 323.15 K [kg/m3]	mass density, 333.15 K [kg/m3]	refractive index, 293.15 K	refractive index, 303.15 K	refractive index, 313.15 K	refractive index, 323.15 K	refractive index, 333.15 K
[3]	878.87	868.2	857.44	846.62	835.71	–	–	–	–	–
[4]	–	–	–	–	–	1.50118	1.49517	1.4885	1.48264	1.47638

Clc1ccccc1 [chlorobenzene]
Settings	mass density, 293.15 K [kg/m3]	mass density, 303.15 K [kg/m3]	mass density, 313.15 K [kg/m3]	mass density, 323.15 K [kg/m3]	mass density, 333.15 K [kg/m3]	refractive index, 293.15 K	refractive index, 303.15 K	refractive index, 313.15 K	refractive index, 323.15 K	refractive index, 333.15 K
[1]	–	–	–	–	–	1.52455	1.51902	1.51346	1.50781	1.50223
[2]	1106.49	1095.71	1084.86	1073.96	1063.01	–	–	–	–	–

ClCCCl [1,2-dichloroethane] + O=[N+]([O-])c1ccccc1
x1 = 1
Settings	mass density, 293.15 K [kg/m3]	mass density, 303.15 K [kg/m3]	mass density, 313.15 K [kg/m3]	mass density, 323.15 K [kg/m3]	mass density, 333.15 K [kg/m3]	refractive index, 293.15 K	refractive index, 303.15 K	refractive index, 313.15 K	refractive index, 323.15 K	refractive index, 333.15 K
[3]	1252.82	1238.27	1223.53	1208.61	1193.61	–	–	–	–	–
[4]	–	–	–	–	–	1.44472	1.43948	1.43423	1.42897	1.42373

ClCCCl [1,2-dichloroethane] + Brc1ccccc1
x1 = 1
Settings	mass density, 293.15 K [kg/m3]	mass density, 303.15 K [kg/m3]	mass density, 313.15 K [kg/m3]	mass density, 323.15 K [kg/m3]	mass density, 333.15 K [kg/m3]	refractive index, 293.15 K	refractive index, 303.15 K	refractive index, 313.15 K	refractive index, 323.15 K	refractive index, 333.15 K
[3]	1252.82	1238.27	1223.53	1208.61	1193.61	–	–	–	–	–
[4]	–	–	–	–	–	1.44472	1.43948	1.43423	1.42897	1.42373

O=[N+]([O-])c1ccccc1 [nitrobenzene]
Settings	mass density, 293.15 K [kg/m3]	mass density, 303.15 K [kg/m3]	mass density, 313.15 K [kg/m3]	mass density, 323.15 K [kg/m3]	mass density, 333.15 K [kg/m3]	refractive index, 293.15 K	refractive index, 303.15 K	refractive index, 313.15 K	refractive index, 323.15 K	refractive index, 333.15 K
[1]	–	–	–	–	–	1.55241	1.54763	1.54288	1.53795	1.53289
[2]	1203.05	1193.15	1183.21	1173.27	1163.32	–	–	–	–	–

c1ccccc1 [benzene]
Settings	mass density, 293.15 K [kg/m3]	mass density, 303.15 K [kg/m3]	mass density, 313.15 K [kg/m3]	mass density, 323.15 K [kg/m3]	mass density, 333.15 K [kg/m3]	refractive index, 293.15 K	refractive index, 303.15 K	refractive index, 313.15 K	refractive index, 323.15 K	refractive index, 333.15 K
[1]	–	–	–	–	–	1.50118	1.49517	1.4885	1.48264	1.47638
[2]	878.87	868.2	857.44	846.62	835.71	–	–	–	–	–

ClCCCl [1,2-dichloroethane] + Clc1ccccc1
x1 = 1
Settings	mass density, 293.15 K [kg/m3]	mass density, 303.15 K [kg/m3]	mass density, 313.15 K [kg/m3]	mass density, 323.15 K [kg/m3]	mass density, 333.15 K [kg/m3]	refractive index, 293.15 K	refractive index, 303.15 K	refractive index, 313.15 K	refractive index, 323.15 K	refractive index, 333.15 K
[3]	1252.82	1238.27	1223.53	1208.61	1193.61	–	–	–	–	–
[4]	–	–	–	–	–	1.44472	1.43948	1.43423	1.42897	1.42373

Brc1ccccc1 [bromobenzene]
Settings	mass density, 293.15 K [kg/m3]	mass density, 303.15 K [kg/m3]	mass density, 313.15 K [kg/m3]	mass density, 323.15 K [kg/m3]	mass density, 333.15 K [kg/m3]	refractive index, 293.15 K	refractive index, 303.15 K	refractive index, 313.15 K	refractive index, 323.15 K	refractive index, 333.15 K
[1]	–	–	–	–	–	1.55981	1.55442	1.5489	1.54319	1.53742
[2]	1495.52	1481.97	1468.41	1454.85	1441.22	–	–	–	–	–
